Patent publication US11173175B2, “Uridine diphosphate compounds as mobilizers of hematopoietic progenitor cells” (University of Pittsburgh—Of the Commonwealth System of …, priority 2012, dated 2021)
“Also recorded” adds a separate entry of the source.

What was measured:
P2Y14 receptor [1] = biological target: T1, P2Y14 receptor (Homo sapiens, UniProt Q15391); settings: cited from earlier work
T1 sequence (Q15391 1-338): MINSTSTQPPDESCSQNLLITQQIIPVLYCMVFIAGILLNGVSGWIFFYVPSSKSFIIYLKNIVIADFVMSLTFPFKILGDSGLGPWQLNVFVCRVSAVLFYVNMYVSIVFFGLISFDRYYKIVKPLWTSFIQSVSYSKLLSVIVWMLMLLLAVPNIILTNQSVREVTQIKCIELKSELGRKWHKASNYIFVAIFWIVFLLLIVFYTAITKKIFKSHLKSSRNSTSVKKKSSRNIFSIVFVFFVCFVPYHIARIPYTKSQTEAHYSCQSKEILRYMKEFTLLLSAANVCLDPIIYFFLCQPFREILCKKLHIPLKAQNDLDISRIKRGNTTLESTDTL

LSK and SLAM LSK cells = assay: HSPC mobilization: LSK and SLAM LSK cells quantified by flow cytometry; format: in vivo, mice
Method: (§1) We used 4-6 weeks old C57BL6 and BALB/C in all the experiments. Mice received subcutaneous injections of UDP-glucose (200 mg/kg, Sigma) dissolved in sterile endotoxin-free PBS. G-CSF (Neupogen, Amgen) was administered daily at a dose of 300 μg/kg subcutaneously for 4 consecutive days as previously described (Broxmeyer et al., 2005). […] Antioxidant, N-acetyl-L-cysteine (Sigma-Aldrich), was administered subcutaneously at 100 mg/kg/day. Bone marrow cells were obtained from both femur and tibia and used for flow cytometry and Western blot analysis. All animal studies were conducted after review by the University of Pittsburgh's Institutional Animal Care and Use Committee and in accordance with the University of Pittsburgh's Policy on the Care, Welfare and Treatment of Laboratory Animals.
Peripheral blood Lin-/Sca-1+/c-Kit+(LSK) and CD150+CD48-(SLAM) LSK cells were phenotyped using the following antibodies: lineage markers PE-Cy7-conjugated anti-CD3, anti-CD4, anti-CD8, anti-CD45R, anti-CD11b, anti-Gr-1, and anti-TER-119 (eBioscience); PE-conjugated anti-Sca-1 (eBioscience); APC-conjugated anti-c-Kit (eBioscience); perCP/Cy5.5-conjugated anti-CD150 (BioLegend); pacific Blue™-conjugated anti-CD48 (BioLegend). […] Mitochondrial superoxide level was measured using MitoSox™ (Invitrogen) within LSK cells, according to manufacturer's instructions.
as §1, with “Mice” for “We used 4-6 weeks old C57BL6 and BALB/C in all the experiments. Mice”, “(10).” for “(Broxmeyer et al., 2005).”

RANKL = RANKL expression by Western blot and immunohistochemistry; format: in vivo, mice; settings: NAC 100 mg/kg/day in comparison with UDP-Glc-treated animals
osteoclasts = assay: TRAP staining of femur sections; format: in vivo, mice; settings: NAC treatment
CXCR4 = CXCR4 expression on LSK and SLAM LSK cells; format: in vivo, mice
Method: FIG. 14A-14F. […] HSPC mobilization was assessed by measuring the numbers of LSK (upper left panel) and SLAM LSK (upper right panel) cells in peripheral blood. […] Representative images of TRAP staining from each group are shown (bottom panels). […] Shown are obtained from 6-8 weeks old animals. (C) Mice (B6) were injected as described in the legend to FIG. 11A. Bone marrow cells were collected from each treatment group and stained with indicated antibodies followed by flow cytometry analysis. The data are shown as mean values of three independent experiments with standard deviation. ** p<0.01. (D) Bone marrow mononuclear cells were isolated from B6 mice treated as above. To determine the protease activity, bone marrow supernatants harvested from indicated treatment groups were analyzed by zymogram analysis as described in the Methods section. The intensity of the zymogram bands (left panels) was analyzed utilizing densitometry and expressed as arbitrary units (right panels). Densitometric analyses are represented as the ratios to vehicle-treated group (CTL) set to 1. […] (E) Mice were treated as described in the legend to FIG. 13F. Expression levels of CXCR4 were determined in bone marrow (upper panel) and peripheral blood (lower panel) cells after gating on LSK or SLAM LSK subsets. Data are expressed as mean±SD from at least two independent experiments with four mice per group. […]

[2] = tested on: bone marrow homing of peripheral blood cells
LSK cells = assay: Chemotaxis assay; format: cell-based, mouse; settings: CXCL12 120 ng/ml; UDP-Glc, UTP, UDP 10 μM; 6 hours
[3] = tested on: white blood cell (WBC) and lineage-marker expressing cells (CD3, CD11b, and Gr-1); settings: G-CSFR deficient mice
P2Y14 receptor [4] = biological target: T1, P2Y14 receptor; settings: Carter et al. 2009; cited from earlier work
[5] = tested on: long-term repopulating HSPCs; assay: Competitive repopulation and serial transplantation assays; format: in vivo, mice
Method: (§2) The ratio of CD45.1/CD45.2 cells in recipient's peripheral blood was determined at various times after transplantation.
as §2

MMP-9 = assay: Zymographic analysis of bone marrow supernatants; format: in vivo, mice
Method: (§3) FIG. 14A-14F. […] HSPC mobilization was assessed by measuring the numbers of LSK (upper left panel) and SLAM LSK (upper right panel) cells in peripheral blood. […] Representative images of TRAP staining from each group are shown (bottom panels). […] Shown are obtained from 6-8 weeks old animals. (C) Mice (B6) were injected as described in the legend to FIG. 11A. Bone marrow cells were collected from each treatment group and stained with indicated antibodies followed by flow cytometry analysis. The data are shown as mean values of three independent experiments with standard deviation. ** p<0.01. (D) Bone marrow mononuclear cells were isolated from B6 mice treated as above. To determine the protease activity, bone marrow supernatants harvested from indicated treatment groups were analyzed by zymogram analysis as described in the Methods section. The intensity of the zymogram bands (left panels) was analyzed utilizing densitometry and expressed as arbitrary units (right panels). Densitometric analyses are represented as the ratios to vehicle-treated group (CTL) set to 1. […] (E) Mice were treated as described in the legend to FIG. 13F. Expression levels of CXCR4 were determined in bone marrow (upper panel) and peripheral blood (lower panel) cells after gating on LSK or SLAM LSK subsets. Data are expressed as mean±SD from at least two independent experiments with four mice per group. […] Recipient mice were conditioned (11 Gy) 24 hours before injection of cells.

cathepsin G (CG) = assay: Zymographic analysis of bone marrow supernatants; format: in vivo, mice
Method: as §3

neutrophil elastase (NE) = assay: Zymographic analysis of bone marrow supernatants; format: in vivo, mice
Method: as §3

[6] = percentage of gated cells within the total number, UDP-Glc 200 mg/kg 6 days, G-CSF 300 μg/kg 4 days

O=c1ccn([C@@H]2O[C@H](COP(=O)([O-])OP(=O)([O-])O[C@H]3O[C@H](CO)[C@@H](O)[C@H](O)[C@H]3O)[C@@H](O)[C@H]2O)c(=S)[nH]1.[Na+].[Na+] [MRS 2690]
potency relative to UDP-Glc (P2Y14 receptor [1]): approximately 7 fold

CC(=O)N[C@@H](CS)C(=O)O [NAC, N-acetyl-L-cysteine]
effect of NAC on UDP-Glc-induced LSK / SLAM LSK cell mobilization (LSK and SLAM LSK cells; NAC 100 mg/kg/day s.c.): significantly abrogate the LSK and SLAM LSK cell mobilization induced by UDP-Glc; also recorded: significantly suppressed by NAC treatment
RANKL expression with NAC (RANKL): notably lowered
UDP-Glc-induced osteoclastogenesis with NAC (osteoclasts): significantly suppressed with NAC treatment
effect of NAC on UDP-Glc-induced CXCR4 expression (CXCR4): able to abrogate the increase of CXCR4 expression induced by UDP-Glc, albeit not completely
effect of NAC pretreatment on homing of UDP-Glc-mobilized cells [2]: inhibited by NAC pretreatment

O=c1ccn([C@@H]2O[C@H](COP(=O)(O)OP(=O)(O)O)[C@@H](O)[C@H]2O)c(=O)[nH]1 [UDP, uridine diphosphate]
LSK cells in the peripheral circulation, UDP alone (LSK and SLAM LSK cells; UDP 200 mg/kg s.c.): did not elicit any appreciable change in the number of LSK cells
effect of UDP on UDP-Glc-induced LSK cell mobilization (LSK and SLAM LSK cells; UDP 200 mg/kg with UDP-Glc 200 mg/kg): antagonized UDP-Glc-induced LSK cell mobilization
chemotactic migration of mouse LSK cells (LSK cells): could chemoattract LSK cells in vitro in the presence or absence of CXCL12
peripheral CD11b+, GR1+ and CD3+ cells in Csf3r−/− mice [3]: minimally affected
agonist activity at the human P2Y14 receptor (P2Y14 receptor [4]): potent agonist of the human P2Y14 receptor

O=c1ccn([C@@H]2O[C@H](COP(=O)(O)OP(=O)(O)OP(=O)(O)O)[C@@H](O)[C@H]2O)c(=O)[nH]1 [UTP, uridine-5′-triphosphate, reference compound]
chemotactic migration of mouse LSK cells (LSK cells): only a slight increase for mouse LSK cell migration with no statistical significance

B1: G-CSF: G-CSF (Neupogen, Amgen), most commonly used cytokine for mobilization of HSPCs (protein, chains of the INN, looked up)
chain: MTPLGPASSLPQSFLLKCLEQVRKIQGDGAALQEKLCATYKLCHPEELVLLGHSLGIPWAPLSSCPSQALQLAGCLSQLHSGLFLYQGLLQALEGISPELGPTLDTLQLDVADFATTIWQQMEELGMAPALQPTQGAMPAFASAFQRRAGGVLVASHLQSFLEVSYRVLRHLAQP
LSK cells in mobilized peripheral blood (LSK and SLAM LSK cells; [6]): 0.058%
SLAM LSK cells in mobilized peripheral blood (LSK and SLAM LSK cells; [6]): 0.0014%
competitive repopulation, UDP-Glc- vs G-CSF-mobilized cells, early ([5]; one month following transplantation): considerable competitive advantage over UDP-Glc-mobilized cells
competition in secondary recipients, bone marrow cells ([5]; serial transplantation, UDP-Glc (CD45.2) vs G-CSF (CD45.1)): completely out-competed by the cells derived from UDP-Glc mobilization
level of MMP-9 (MMP-9): Elevated levels
level of CG (cathepsin G (CG)): Elevated levels
level of NE (neutrophil elastase (NE)): Elevated levels
